Laboratory results from patent US20240000803A1, “ORAL FORMULATION OF BIOLOGICALLY ACTIVE MATERIAL CONJUGATE HAVING BIOTIN MOIETY, FATTY ACID MOIETY, OR COMBINATION THEREOF COUPLED THERETO” (D&D Pharmatech Inc., priority 2020, published 2024).
Where no end group is shown, it is not given here. [ ]: non-standard residue; d: D form. The star is where a group is joined. Biotin = O=C1N[C@H]2[C@H](CS[C@H]2CCCCC(=O)*)N1; F11 = C18-Glu-EG2-EG2-NHS; Aib = CC(C)(N)C(=O)O

Key:
[1] = Weight reduction and feed intake reduction over 24 hours after oral administration; assay type: in vivo; settings: mice, formulation with sodium chenodeoxycholate and propyl gallate (Table 13)
Experimental: Physiologically active substances bound to a biotin moiety, fatty acid moiety or a combination thereof, prepared in accordance with the above example, were formulated by dissolving in a vehicle (0.02% polysorbate 80 in 10 mM PBS (pH 7.4)) with the compositions of excipients shown in Table 13, then administered orally to mice. Weight reduction and feed intake reduction were measured over 24 hours.

[2] = system: glycated hemoglobin; assay: Glycated hemoglobin change after oral administration once daily over 3 weeks (Conjugate 56); assay type: in vivo; settings: mice; for ΔGlycated Hemoglobin: oral once daily over 3 weeks, sCDC 68 mg/kg, PG 34 mg/kg
Experimental: Physiologically active substances bound to a biotin moiety prepared in accordance with the above example were formulated by dissolving in a vehicle with the compositions of excipients shown in Table 23. These were orally administered to mice once daily over 3 weeks, and changes in glycated hemoglobin were measured.

| Substance | Weight loss compared to untreated group (%) [1] [%] | other results |
| --- | --- | --- |
| Conjugate 33: Polypeptide SEQ ID NO 24 (amylin derivative) with biotin moiety B38 at K1 (K(Biotin)CNTATCATQRLANFLVHSSNNFGPILPPTNVGSNTY; ends and bridges not checked) | −4.07 ± 1.30 |  |
| Polypeptide SEQ ID NO: 24: amylin derivative KCNTATCATQRLANFLVHSSNNFGPILPPTNVGSNTY (Amylin derivative) [reference compound] | −2.63 ± 1.06 |  |
| Conjugate 62: Polypeptide SEQ ID NO 26 with biotin moiety B38 at K1 and fatty acid moiety F11 at K1 (KCNTATCATQRLADFLRHSSPNFGAIPSSTNVGSRTY; not fully specified (residue 1); ends and bridges not checked; also: biotin B38 and fatty acid F11 both at K1, attachment sites not given here) | −3.32 ± 1.31 |  |
| Conjugate 61: Polypeptide SEQ ID NO 24 with biotin moiety B38 at K1 and fatty acid moiety F11 at K1 (KCNTATCATQRLANFLVHSSNNFGPILPPTNVGSNTY; not fully specified (residue 1); ends and bridges not checked; also: biotin B38 and fatty acid F11 both at K1, attachment sites not given here) | −2.96 ± 4.22 |  |
| Polypeptide SEQ ID NO: 26: amylin derivative KCNTATCATQRLADFLRHSSPNFGAIPSSTNVGSRTY (Amylin derivative) [reference compound] | −3.13 ± 1.05 |  |
| Conjugate 36: Polypeptide SEQ ID NO 26 (amylin derivative) with biotin moiety B38 at K1 (K(Biotin)CNTATCATQRLADFLRHSSPNFGAIPSSTNVGSRTY; ends and bridges not checked) | −4.53 ± 0.86 |  |
| Conjugate 63: Polypeptide SEQ ID NO 28 with biotin moiety B38 at K1 and fatty acid moiety F11 at K1 (KCNTATCATQRLADFLRHSSNNFGAIPSSTNVGSRTY; not fully specified (residue 1); ends and bridges not checked; also: biotin B38 and fatty acid F11 both at K1, attachment sites not given here) | −2.41 ± 0.78 |  |
| Polypeptide SEQ ID NO: 30: amylin derivative RCNTATCATQRLADFLRHSSNNFGAIPSSTNVGSKTY (Amylin derivative) [reference compound] | −1.17 ± 0.76 |  |
| Conjugate 39: Polypeptide SEQ ID NO 28 (amylin derivative) with biotin moiety B38 at K1 (K(Biotin)CNTATCATQRLADFLRHSSNNFGAIPSSTNVGSRTY; ends and bridges not checked) | −1.99 ± 0.94 |  |
| Polypeptide SEQ ID NO: 28: amylin derivative KCNTATCATQRLADFLRHSSNNFGAIPSSTNVGSRTY (Amylin derivative) [reference compound] | −1.11 ± 0.84 |  |
| Conjugate 64: Polypeptide SEQ ID NO 30 with biotin moiety B38 at K35 and fatty acid moiety F11 at K1 (RCNTATCATQRLADFLRHSSNNFGAIPSSTNVGSK(Biotin)TY; ends and bridges not checked; also: fatty acid F11 at K1, but residue 1 is R) | −3.38 ± 1.26 |  |
| Conjugate 56: Polypeptide SEQ ID NO 40 (glucagon derivative) with biotin moiety B38 at K12 and fatty acid moiety F11 at K30 (H[Aib]QGTFTSDYSK(Biotin)YLDEQAAKEFVQWLMNTK(F11)) |  | glycated hemoglobin reduction effect ([2]; oral once daily 3 weeks, formulation with one bile acid and propyl gallate): exhibited a glycated hemoglobin reduction effect; ΔGlycated Hemoglobin ([2]; 1.343 mg/kg): −0.47 ± 0.34%; ΔGlycated Hemoglobin ([2]; 4.475 mg/kg): −0.98 ± 0.67% |
